Laboratory results as given in PMC11369174, “Proteome-scale characterisation of motif-based interactome rewiring by disease mutations” (Molecular Systems Biology, 2024).
“Also recorded” adds a separate entry of the source.

Columns and labels:
ABL1 SH3 = ABL1 SH3 (Homo sapiens, UniProt P00519); test: GenVar_HD2 ProP-PD phage selection, ABL1 SH3; assay type: binding; conditions: for mutant_found: True/False if a mutated peptide was found in selection; for wildtype_found: True/False if a wild type peptide was found in selection; for mutation_effect_on_PPI: bait-mutation pair categorized as diminished, enhanced or no_effect; for max_mutant_confidence: maximum confidence for an enriched mutated peptide; for max_wildtype_confidence: maximum confidence for an enriched wild type peptide; for confidence: confidence of the enriched peptide; for overlap: overlapping peptides; for replicates: replicates in which the peptide was found
MAP1LC3B ATG8 [1] = biological target: T1, MAP1LC3B ATG8 (Homo sapiens, UniProt Q9GZQ8); test: FP displacement assay, MAP1LC3B ATG8; assay type: binding; conditions: for Kd: read-out: KD-values [µM] + SEM
Procedure: (§1) FP experiments were performed, as previously described (Kliche et al, [2021], [2023]), on an iD5 plate reader (Molecular devices) using black half-area non-binding 96-well plates (Corning). In order to calculate the FP signal in millipolarisation (mP), the FITC-labelled peptides were excited at 485 nm and the emitted light was measured at 535 nm in two different angles. For saturation experiments, a dilution series of the respective protein domains was generated (25 µL) and 10 nM fluorescein isothiocyanate (FITC)-labelled peptide (diluted in 50 mM sodium phosphate buffer pH 7.4, 0.05% Tween) were added in an end volume of 50 µL. A control experiment titrating GST was performed for the binding of the NEDD4 WW2 domain, since the GST-tagged construct was used for affinity measurements. For fitting the data, the buffer-corrected reduced values were plotted in GraphPad PRISM against the respective protein concentration and the KD-values were obtained by fitting against the quadratic equation (Gianni et al, [2005]).
(§2) The buffer-corrected reduced values were subsequently plotted against the logarithmic unlabelled peptide concentration to derive the IC50 values by using the sigmoidal dose-response (x is logarithmic) fit in GraphPad PRISM and calculate the KD values as described previously (Nikolovska-Coleska et al, [2004]).

MAP1LC3B ATG8 [2] = biological target: T1, MAP1LC3B ATG8; test: Isothermal titration calorimetry, MAP1LC3B ATG8; assay type: binding; parameters: S∆T / ∆H: unit not given here; conditions: ITC; for N (stoichiometry of the interaction): N value from the fit or set if necessary
MAP1LC3B ATG8 [3] = biological target: T1, MAP1LC3B ATG8; test: GenVar_HD2 ProP-PD phage selection, MAP1LC3B ATG8; conditions: bait MAP1LC3B ATG8; from NGS counts of overlapping wild-type/mutant library peptide pairs; positive = mutation enhances, negative = disrupts binding
Procedure: Phage display screens were performed according to previous reports (Benz et al, [2022]; Ali et al, [2020]) and for four consecutive selection rounds with five to six replicates per bait protein domain against the […] library.
On the first day, both bait (15 µg in 100 µL PBS) and control protein domains (GST and MBP; 10 µg in 100 µL PBS) were immobilised on a 96-well MaxiSorb plate (Nunc) overnight in the cold room while shaking. Additionally, a 10 mL culture of Omnimax E. coli bacteria supplemented with 10 µg/mL tetracycline was incubated overnight at 37 °C at 200 rpm.
First, protein solutions were removed from both control and bait protein domain plates and the wells were blocked with 0.5% BSA in PBS (200 µL/well) for 1 h in the cold room while shaking. After that, three Omnimax E. coli cultures were started supplemented with either 30 µg/mL kanamycin, 100 µg/mL carbenicillin and 10 µg/mL tetracycline and incubated at 37 °C and 200 rpm. The two first cultures served as a means to check for helper phage contamination (kanamycin) and phages with library phagemid contamination (carbenicillin) of the culture used for elution of the phages during selections. The tetracycline Omnimax E. coli culture was grown until OD at 600 nm reached 0.6–0.8.
Naïve phage libraries were precipitated (10 µL/well of bait protein domain) by diluting the library tenfold with PBS, adding one-fourth of 20% […] and 400 mM NaCl and incubating the mixture for 15 min on ice. Subsequently, phages were spun down for 15 min at 13,000 × g and resuspended in 0.5% BSA and 0.05% Tween-20 in PBS (100 µL/well). Control domain plates were washed four times with 200 µL 0.05% Tween-20 in PBS, 100 µL of the naïve phage library (10^11 phages/mL) were added to every well and the plates incubated for 1 h in the cold room while shaking. Next, protein bait domain plates were washed four times with 0.05% Tween-20 in PBS and the phage solution from the control protein plate was transferred to the respective wells on the protein bait domain plate. […]

NEDD4 WW2 = NEDD4 WW2 (Homo sapiens, UniProt P46934); test: FP displacement assay, NEDD4 WW2; assay type: binding; conditions: read-out: KD-values [µM] + SEM
Procedure: For saturation experiments, a dilution series of the respective protein domains was generated (25 µL) and 10 nM fluorescein isothiocyanate (FITC)-labelled peptide (diluted in 50 mM sodium phosphate buffer pH 7.4, 0.05% Tween) were added in an end volume of 50 µL. A control experiment titrating GST was performed for the binding of the NEDD4 WW2 domain, since the GST-tagged construct was used for affinity measurements.
If the raw values indicated a FITC-contamination of the unlabelled peptide, the data was excluded and a new batch of peptide was ordered for remeasuring the affinity.

KPNA4 ARM = test: GenVar_HD2 ProP-PD phage selection, KPNA4 ARM; assay type: binding, human; conditions: for max_promiscuity / max_specificity: bait-prey protein level, bait_accession O00629; for Mutation enrichment score: bait KPNA4 ARM, from NGS counts of overlapping wild-type/mutant library peptide pairs, positive = mutation enhances, negative = disrupts binding
KPNA7 ARM major = KPNA7 ARM major (Homo sapiens, UniProt A9QM74); test: FP displacement assay, KPNA7 ARM major pocket; assay type: binding; conditions: for Kd: read-out: KD-values [µM] + SEM
Procedure: as §1, §2

KPNA4 ARM major = KPNA4 ARM major (Homo sapiens, UniProt O00629); test: FP displacement assay, KPNA4 ARM major pocket; assay type: binding; conditions: from FP displacement KD values, KPNA4 ARM major pocket
Procedure: as §1, §2

[4] = phage selection, bait ABL1_SH3__P00519_60_121
[5] = KD (isothermal titration calorimetry), 50 mM sodium phosphate pH 7.4, 1 mM DTT, peptide titrated in tenfold excess, 16 injections
[6] = bait domain-prey protein level, bait ABL1_SH3__P00519_60_121

Chain of KPNA7 ARM major (A9QM74 66-488 limits assumed): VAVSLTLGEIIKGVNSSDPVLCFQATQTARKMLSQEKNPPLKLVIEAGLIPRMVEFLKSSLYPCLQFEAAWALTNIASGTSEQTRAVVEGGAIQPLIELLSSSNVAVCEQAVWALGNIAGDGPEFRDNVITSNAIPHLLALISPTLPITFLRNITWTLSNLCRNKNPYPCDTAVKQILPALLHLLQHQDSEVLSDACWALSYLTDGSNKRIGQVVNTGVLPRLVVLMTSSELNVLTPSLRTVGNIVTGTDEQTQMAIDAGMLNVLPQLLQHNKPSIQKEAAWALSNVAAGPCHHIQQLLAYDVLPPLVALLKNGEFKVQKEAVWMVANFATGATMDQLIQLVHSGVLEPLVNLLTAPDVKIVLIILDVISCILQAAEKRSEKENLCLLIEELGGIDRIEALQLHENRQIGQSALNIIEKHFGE
Chain of ABL1 SH3 (P00519 60-121): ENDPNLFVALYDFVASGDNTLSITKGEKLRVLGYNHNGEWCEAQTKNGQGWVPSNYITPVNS
Chain of KPNA4 ARM major (O00629 68-487): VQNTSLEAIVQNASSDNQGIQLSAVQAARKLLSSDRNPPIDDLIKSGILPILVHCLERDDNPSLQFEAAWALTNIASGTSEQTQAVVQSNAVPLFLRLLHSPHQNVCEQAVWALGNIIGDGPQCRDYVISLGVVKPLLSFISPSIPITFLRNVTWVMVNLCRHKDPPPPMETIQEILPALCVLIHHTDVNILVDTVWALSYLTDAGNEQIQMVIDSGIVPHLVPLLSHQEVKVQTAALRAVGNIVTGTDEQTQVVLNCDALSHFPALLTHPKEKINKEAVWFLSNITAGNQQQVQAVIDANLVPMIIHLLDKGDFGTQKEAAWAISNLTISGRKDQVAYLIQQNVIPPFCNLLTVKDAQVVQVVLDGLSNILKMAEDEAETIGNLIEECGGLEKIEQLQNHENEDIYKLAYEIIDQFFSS
Chain of NEDD4 WW2 (P46934 765-803 limits assumed): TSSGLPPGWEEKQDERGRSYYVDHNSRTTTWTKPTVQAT

## HYLDLLALLLDSSEPRFSPPHSPPGPCMPEVFLEAAVALIQ [O15287.P386H]
ABL1 SH3
  mutant_found: TRUE
  wildtype_found: TRUE
  max_mutant_confidence: 3
  max_wildtype_confidence: 4
ABL1 SH3; bait ABL1_SH3__P00519_60_121
  mutation_effect_on_PPI: no_effect

## KPPEEPGQCPAPEELPLFPPSGEPSLSPLLGEPALSEPGEP [O14686.P886S]
ABL1 SH3
  mutant_found: TRUE
  wildtype_found: TRUE
  max_mutant_confidence: 1
  max_wildtype_confidence: 3
ABL1 SH3; bait ABL1_SH3__P00519_60_121
  mutation_effect_on_PPI: no_effect

## CC(=O)NCC(=O)N[C@@H](CC(=O)O)C(=O)N[C@@H](CC(=O)O)C(=O)N[C@@H](CC(=O)O)C(=O)N[C@@H](Cc1c[nH]c2ccccc12)C(=O)N[C@H](C(=O)N[C@@H](Cc1c[nH]cn1)C(=O)N[C@@H](CC(C)C)C(=O)N[C@@H](CO)C(=O)N[C@@H](CO)C(=O)N[C@@H](CCCCN)C(=O)N[C@@H](CCC(=O)O)C(=O)N[C@H](C(=O)N[C@@H](CC(=O)O)C(=O)N1CCC[C@H]1C(=O)N[C@@H](CO)C(N)=O)C(C)C)[C@@H](C)O [SQSTM1_334-349 wild-type]
MAP1LC3B ATG8 [1]
  Kd: 0.5 ± 0.1 µM

## NGSLVPVPPTTPAPGV
ABL1 SH3; [4]
  promiscuity: 2
  specificity: 0.8421
  confidence: 2
  overlap: 0
  replicates: 4

## LDSSEPRFSPPLSPPG
ABL1 SH3; [4]
  promiscuity: 1
  specificity: 1
  confidence: 2
  overlap: 1
  replicates: 1
ABL1 SH3; phage selection, bait ABL1_SH3__P00519_60_121, NGS counts
  mean_counts_%: 0.0009534%

## Ac-EDEVYEILRDTSEEDS-NH2 [BRCA2_292-307 T298I/V299L/V300R]
MAP1LC3B ATG8 [1]
  Kd: 0.52 ± 0.01 µM
MAP1LC3B ATG8 [2]; replicate 1
  Ka: 388000
  S∆T: 3.04
  ∆H: -6718
  N (stoichiometry of the interaction): 0.744
MAP1LC3B ATG8 [2]; replicate 2
  Ka: 524000
  S∆T: 3.49
  ∆H: -6766
  N (stoichiometry of the interaction): 0.685
MAP1LC3B ATG8 [2]; replicate 3
  Ka: 3280000
  S∆T: 8.75
  ∆H: -6280
  N (stoichiometry of the interaction): 0.649
MAP1LC3B ATG8 [2]; [5]
  Kd: 2 µM
MAP1LC3B ATG8 [3]
  Mutation enrichment score: 15

## Ac-PIPGTPPPNYDSLRLQ-NH2 [SCNN1B_611-626 wild-type]
NEDD4 WW2
  Kd: 39 ± 3 µM

## LSPVRSPTPPAAGFQPLLNGRLVPVPPTTPAPGVQLDVEAL [B1AK53.S719R]
ABL1 SH3
  mutant_found: FALSE
  wildtype_found: TRUE
  max_wildtype_confidence: 2
ABL1 SH3; bait ABL1_SH3__P00519_60_121
  mutation_effect_on_PPI: no_effect

## EPRFSPPHSPPGPAMP
ABL1 SH3; [4]
  promiscuity: 2
  specificity: 0.9643
  confidence: 3
  overlap: 1
  replicates: 5

## A7E2Y1
KPNA4 ARM
  max_promiscuity: 10
  max_specificity: 0.7829

## Ac-EPSEKRTRLEEEIVEY-NH2 [CDC45_152-166 wild-type]
KPNA7 ARM major
  Kd: 6.6 ± 0.7 µM

## O14647
KPNA4 ARM
  max_promiscuity: 11
  max_specificity: 0.5779

## EGR2
ABL1 SH3; [6]
  max_promiscuity: 5
  max_specificity: 0.973

## HYLDLLALLLDSSEPRFSPPLSPPGPCMPEVFLEAAVALIQ [O15287.P386L]
ABL1 SH3
  mutant_found: TRUE
  wildtype_found: TRUE
  max_mutant_confidence: 2
  max_wildtype_confidence: 4
ABL1 SH3; bait ABL1_SH3__P00519_60_121
  mutation_effect_on_PPI: no_effect

## Ac-EDEVYETVVDTSEEDS-NH2 [BRCA2_292-307 wild-type]
MAP1LC3B ATG8 [1]
  Kd: 3.12 ± 0.08 µM
MAP1LC3B ATG8 [2]; replicate 1
  Ka: 9160
  S∆T: -1.5
  ∆H: -5832
  N (stoichiometry of the interaction): 0.70
MAP1LC3B ATG8 [2]; replicate 2
  Ka: 55000
  S∆T: 13.7
  ∆H: -2389
  N (stoichiometry of the interaction): 0.684
MAP1LC3B ATG8 [2]; average of the Kd [µM] column, wild-type technical duplicate, mutant technical triplets, read-out: Average Kd
  Kd: 64 µM
MAP1LC3B ATG8 [2]; [5]
  Kd: 20 to 100 µM

## KPPEEPGQCPAPEELPLFPPTGEPSLSPLLGEPALSEPGEP [O14686.P886T]
ABL1 SH3
  mutant_found: FALSE
  wildtype_found: TRUE
  max_wildtype_confidence: 3
ABL1 SH3; bait ABL1_SH3__P00519_60_121
  mutation_effect_on_PPI: diminished

## CC(=O)NCC(=O)N[C@@H](CC(=O)O)C(=O)N[C@@H](CC(=O)O)C(=O)N[C@@H](CC(=O)O)C(=O)N[C@@H](Cc1c[nH]c2ccccc12)C(=O)N[C@H](C(=O)N[C@@H](Cc1c[nH]cn1)C(=O)N[C@@H](CC(C)C)C(=O)N[C@@H](CO)C(=O)N[C@@H](CO)C(=O)N[C@@H](CCCCN)C(=O)N[C@@H](CCC(=O)O)C(=O)N[C@H](C(=O)N[C@@H](CC(=O)O)C(=O)N[C@@H](CC(C)C)C(=O)N[C@@H](CO)C(N)=O)C(C)C)[C@@H](C)O [SQSTM1_334-349 P348L]
MAP1LC3B ATG8 [1]; FP affinity measurements, MAP1LC3B ATG8
  effect of the mutation on binding (in words): the mutation has no impact on binding; also recorded: did not affect the binding
MAP1LC3B ATG8 [1]
  Kd: 0.6 ± 0.1 µM
MAP1LC3B ATG8 [3]
  Mutation enrichment score: 7.6

## EPRFSPPPSPPGPAMP
ABL1 SH3; [4]
  promiscuity: 5
  specificity: 0.995
  confidence: 4
  overlap: 1
  replicates: 6

## Ac-EPSEKCTRLEEEIVEY-NH2 [CDC45_152-166 R157C]
KPNA4 ARM major
  weakened binding, mutant vs wild-type peptide: 70 fold
KPNA7 ARM major; from FP displacement KD values, KPNA7 ARM major pocket
  loss of binding, mutant vs wild-type peptide: 50 fold
KPNA7 ARM major
  Kd: 380 ± 15 µM
KPNA4 ARM
  Mutation enrichment score: −7

## PLFPPPGEPSLSPLLG
ABL1 SH3; [4]
  promiscuity: 2
  specificity: 0.9995
  confidence: 3
  overlap: 0
  replicates: 6

## Ac-LDLDDRWQFKRSQLLD-NH2 [ABRAXAS1_349-364 R361Q]
KPNA4 ARM major
  weakened binding, mutant vs wild-type peptide: 400 fold
KPNA4 ARM
  Mutation enrichment score: −6

## Ac-YPRMPEAARPVAPAPAAP-NH2 [TP53_64-80 P72R]
ABL1 SH3; bait ABL1 SH3, from NGS counts of overlapping wild-type/mutant library peptide pairs, positive = mutation enhances, negative = disrupts binding
  Mutation enrichment score: −6
